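Where inhibition never reached the appropriate level, the endpoint shown equals the highest concentration tested. Otherwise, values were interpolated linearly from a five-concentration, 48-hour dose response in 96-well plates. The concentration for full growth arrest is given as TGI.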
How the values were obtained:
Assay in all cases: NCI anticancer screen, dose series, 48 h
SK-OV-3 ovarian = system: SK-OV-3 ovarian
UACC-62 melanoma = system: UACC-62 melanoma
UO-31 renal = system: UO-31 renal
SF-539 CNS = system: SF-539 CNS
NCI-H23 lung = system: NCI-H23 lung
HCC-2998 colon = system: HCC-2998 colon
SNB-19 CNS = system: SNB-19 CNS
DU-145 prostate = system: DU-145 prostate
M14 melanoma = system: M14 melanoma
SN12C renal = system: SN12C renal
NCI-H460 lung = system: NCI-H460 lung
SW-620 colon = system: SW-620 colon
MCF7 breast = system: MCF7 breast
CCRF-CEM leukemia = system: CCRF-CEM leukemia
CAKI-1 renal = system: CAKI-1 renal
TK-10 renal = system: TK-10 renal
SNB-75 CNS = system: SNB-75 CNS
A549 NSCLC = system: A549 NSCLC
MDA-MB-231 breast = system: MDA-MB-231 breast

Structure (SMILES)	TGI (SK-OV-3 ovarian)	TGI (UACC-62 melanoma)	TGI (UO-31 renal)	TGI (SF-539 CNS)	TGI (NCI-H23 lung)	TGI (HCC-2998 colon)	TGI (SNB-19 CNS)	TGI (DU-145 prostate)	TGI (M14 melanoma)	TGI (SN12C renal)	TGI (NCI-H460 lung)	TGI (SW-620 colon)	TGI (MCF7 breast)	TGI (CCRF-CEM leukemia)	TGI (CAKI-1 renal)	TGI (TK-10 renal)	TGI (SNB-75 CNS)	TGI (A549 NSCLC)	TGI (MDA-MB-231 breast)
O=[N+]([O-])c1ccc(-c2ccc([C@H]3CC(c4cc(F)c(Cl)cc4Cl)=NN3)o2)cc1	> 100 µM	> 100 µM	> 100 µM	30.1 µM	32.9 µM	38.7 µM	> 100 µM	> 100 µM	> 100 µM	> 100 µM	> 100 µM	> 100 µM	> 100 µM	35.1 µM	> 100 µM	> 100 µM	71.4 µM	–	–
CC(=O)OC1=C(c2ccccc2)S(=O)(=O)c2ccccc21	–	> 100 µM	> 100 µM	> 100 µM	> 100 µM	> 100 µM	> 100 µM	> 100 µM	> 100 µM	–	> 100 µM	> 100 µM	> 100 µM	> 100 µM	> 100 µM	> 100 µM	> 100 µM	> 100 µM	> 100 µM
C/C(=C/C(=O)N(C)c1ccccc1Cl)O[Si](C(C)C)(C(C)C)C(C)C	> 100 µM	–	39.3 µM	38.3 µM	62.2 µM	–	64.5 µM	> 100 µM	70.9 µM	32.4 µM	56.2 µM	38.9 µM	–	–	> 100 µM	> 100 µM	> 100 µM	> 100 µM	50.1 µM
COC(=O)c1c(C(=O)OC)c2ccccn2c1-c1cc(C)cc2c1C(=O)C=CC2=O	–	17.7 µM	6.05 µM	15.7 µM	14.8 µM	20.1 µM	18.6 µM	20.1 µM	14.5 µM	17.6 µM	–	8.21 µM	–	3.65 µM	12.4 µM	18.4 µM	23.6 µM	25.7 µM	15.9 µM
COc1ccc2c(c1)SC1=Nc3sc4cc(OC)ccc4[n+]3CN12	> 100 µM	42.4 µM	> 100 µM	> 100 µM	> 100 µM	–	> 100 µM	> 100 µM	> 100 µM	> 100 µM	72.8 µM	> 100 µM	31.4 µM	> 100 µM	> 100 µM	> 100 µM	–	> 100 µM	> 100 µM
COC(=O)c1c(O)ccc2c1c1c(n2CCc2ccccc2)C(=O)c2ccccc2C1	64.2 µM	37.2 µM	49.7 µM	45.2 µM	74.1 µM	–	84.1 µM	> 100 µM	55.2 µM	35.4 µM	48.3 µM	> 100 µM	42.5 µM	60.6 µM	45.6 µM	> 100 µM	54.1 µM	> 100 µM	57 µM
CCOc1cc(NC(C)=O)ccc1C(=O)NN1C(=O)/C(=C/c2ccc(Cl)cc2)N=C1c1ccccc1	> 100 µM	–	> 100 µM	> 100 µM	> 100 µM	–	> 100 µM	> 100 µM	> 100 µM	> 100 µM	–	> 100 µM	> 100 µM	93 µM	> 100 µM	> 100 µM	> 100 µM	> 100 µM	> 100 µM
CC(=O)Nc1ccc2c3c(cc(O)c2c1)N(C(=O)CCCCCCC(=O)Nc1ccc2c4c(cc(O)c2c1)N(C(=O)OC(C)(C)C)CC4CCl)CC3CCl (stereo not given)	23.9 µM	0.219 µM	3.35 µM	0.396 µM	0.346 µM	0.238 µM	–	0.0587 µM	0.374 µM	2.59 µM	0.245 µM	> 36.3 µM	0.739 µM	0.0259 µM	17.2 µM	–	0.284 µM	> 32.3 µM	–
CN1CN(c2ccccc2)C2(CCN(CCCN(C)c3ccc(F)cc3)CC2)C1=O	42.3 µM	36.5 µM	40.3 µM	39.7 µM	44.1 µM	–	56.5 µM	76.1 µM	30.7 µM	66.4 µM	32.9 µM	36.2 µM	29.2 µM	62.1 µM	86.4 µM	44.9 µM	40 µM	65.9 µM	28.3 µM
CCOC(=O)c1sc(N)nc1N1CCCC1	> 100 µM	> 100 µM	> 100 µM	> 100 µM	> 100 µM	–	> 100 µM	> 100 µM	> 100 µM	> 100 µM	> 100 µM	> 100 µM	> 100 µM	> 100 µM	> 100 µM	> 100 µM	> 100 µM	> 100 µM	> 100 µM
CCOP(=O)(OCC)/C(F)=C/c1ccc(F)cc1	> 100 µM	> 100 µM	> 100 µM	> 100 µM	> 100 µM	–	> 100 µM	> 100 µM	> 100 µM	> 100 µM	> 100 µM	> 100 µM	> 100 µM	> 100 µM	> 100 µM	> 100 µM	> 100 µM	> 100 µM	> 100 µM
Nc1nc(NCc2ccccc2)cc(NCc2ccccc2)n1	33.7 µM	16.5 µM	21 µM	18.3 µM	20 µM	24.6 µM	31 µM	–	39.5 µM	32.4 µM	32.5 µM	> 100 µM	6.36 µM	> 100 µM	9.74 µM	22.3 µM	13.1 µM	92 µM	22.4 µM
CC12CCC(C(=Nc3ccc([N+](=O)[O-])cc3)C1=O)C2(C)C (stereo not given)	> 100 µM	> 100 µM	> 100 µM	42.2 µM	99.5 µM	38.2 µM	> 100 µM	79.5 µM	> 100 µM	–	> 100 µM	98.4 µM	> 100 µM	–	> 100 µM	59 µM	–	> 100 µM	76.6 µM

From PubChem BioAssay (NCI)
